PubChem BioAssay AID1918933 (Molecular Pharmacology Branch, DTP, NCI, 2023)

Tested on: 186277-243-T-J2-PDC complex spheroid viability
Experiment: Anticancer human tumor 186277-243-T-J2-PDC patient-derived colon adenocarcinoma cell line growth inhibition
Conditions: for IC50: curve of first compound; for viability, T/C: stronger effect = lower value
Procedure, shortened: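 Complex spheroids of tumor cells with HUVEC and human MSCs, exposed to iadademstat combined with other agents. Each agent tested in half-log steps from near clinical Cmax (else 10 microM top), DMSO ≤0.25%.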

[1] = second compound 0.1 µM, first compound 0.0316 µM
[2] = second compound 0.1 µM, first compound 0.1 µM
[3] = second compound 0.1 µM, first compound 0.316 µM
[4] = second compound 0.1 µM, first compound 1 µM
[5] = second compound 0.1 µM, first compound 3.16 µM
[6] = second compound 0.1 µM, first compound 10 µM
[7] = second compound 0.316 µM, first compound 0.0316 µM
[8] = second compound 0.316 µM, first compound 0.1 µM
[9] = second compound 0.316 µM, first compound 0.316 µM
[10] = second compound 0.316 µM, first compound 1 µM
[11] = second compound 0.316 µM, first compound 3.16 µM
[12] = second compound 0.316 µM, first compound 10 µM
[13] = second compound 1 µM, first compound 0.0316 µM
[14] = second compound 1 µM, first compound 0.1 µM
[15] = second compound 1 µM, first compound 0.316 µM
[16] = second compound 1 µM, first compound 1 µM
[17] = second compound 1 µM, first compound 3.16 µM
[18] = second compound 1 µM, first compound 10 µM
[19] = second compound 3.16 µM, first compound 0.0316 µM
[20] = second compound 3.16 µM, first compound 0.1 µM
[21] = second compound 3.16 µM, first compound 0.316 µM
[22] = second compound 3.16 µM, first compound 1 µM
[23] = second compound 3.16 µM, first compound 3.16 µM
[24] = second compound 3.16 µM, first compound 10 µM
[25] = second compound 10 µM, first compound 0.0316 µM
[26] = second compound 10 µM, first compound 0.1 µM
[27] = second compound 10 µM, first compound 0.316 µM
[28] = second compound 10 µM, first compound 1 µM
[29] = second compound 10 µM, first compound 3.16 µM
[30] = second compound 10 µM, first compound 10 µM
[31] = second compound 0.1 µM, first compound 0.00316 µM
[32] = second compound 0.1 µM, first compound 0.01 µM
[33] = second compound 0.316 µM, first compound 0.00316 µM
[34] = second compound 0.316 µM, first compound 0.01 µM
[35] = second compound 1 µM, first compound 0.00316 µM
[36] = second compound 1 µM, first compound 0.01 µM
[37] = second compound 3.16 µM, first compound 0.00316 µM
[38] = second compound 3.16 µM, first compound 0.01 µM
[39] = second compound 10 µM, first compound 0.00316 µM
[40] = second compound 10 µM, first compound 0.01 µM
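Further: 7 day exposure to compounds.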
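Wherever viability, T/C is given: 100% = DMSO vehicle control viability.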

## CC(C)c1c(-c2ccccc2)nc2c(C#N)c[nH]n2c1=O + NC1CC1c1ccc(-c2cccc(O)c2)cc1
Second compound 0.1 µM
  IC50: > 10 µM
Second compound 0.316 µM
  IC50: > 10 µM
Second compound 1 µM
  IC50: > 10 µM
Second compound 3.16 µM
  IC50: > 10 µM
Second compound 10 µM
  IC50: > 10 µM
[1]
  viability, T/C: 114%
[2]
  viability, T/C: 101%
[3]
  viability, T/C: 106%
[4]
  viability, T/C: 85.4%
[5]
  viability, T/C: 88.1%
[6]
  viability, T/C: 72.5%
[7]
  viability, T/C: 95.9%
[8]
  viability, T/C: 107%
[9]
  viability, T/C: 104%
[10]
  viability, T/C: 100%
[11]
  viability, T/C: 85.9%
[12]
  viability, T/C: 78.5%
[13]
  viability, T/C: 106%
[14]
  viability, T/C: 99.8%
[15]
  viability, T/C: 93%
[16]
  viability, T/C: 96.2%
[17]
  viability, T/C: 95.4%
[18]
  viability, T/C: 73.7%
[19]
  viability, T/C: 101%
[20]
  viability, T/C: 106%
[21]
  viability, T/C: 111%
[22]
  viability, T/C: 108%
[23]
  viability, T/C: 96.9%
[24]
  viability, T/C: 80.9%
[25]
  viability, T/C: 88.9%
[26]
  viability, T/C: 86%
[27]
  viability, T/C: 102%
[28]
  viability, T/C: 97.6%
[29]
  viability, T/C: 85%
[30]
  viability, T/C: 74.6%

## COc1ccc([C@@H](O)c2cc(-c3ncnc4cc(N5CCOCC5)ccc34)c(F)cc2Cl)nn1 + NC1CC1c1ccc(-c2cccc(O)c2)cc1
Second compound 0.1 µM
  IC50: 5.37 µM
Second compound 0.316 µM
  IC50: 4.68 µM
Second compound 1 µM
  IC50: 4.39 µM
Second compound 3.16 µM
  IC50: 4.41 µM
Second compound 10 µM
  IC50: 3.73 µM
[1]
  viability, T/C: 105%
[2]
  viability, T/C: 109%
[3]
  viability, T/C: 112%
[4]
  viability, T/C: 96.3%
[5]
  viability, T/C: 81.8%
[6]
  viability, T/C: 14%
[7]
  viability, T/C: 109%
[8]
  viability, T/C: 108%
[9]
  viability, T/C: 110%
[10]
  viability, T/C: 89.1%
[11]
  viability, T/C: 70.8%
[12]
  viability, T/C: 12.8%
[13]
  viability, T/C: 107%
[14]
  viability, T/C: 113%
[15]
  viability, T/C: 114%
[16]
  viability, T/C: 80.9%
[17]
  viability, T/C: 68.7%
[18]
  viability, T/C: 12.9%
[19]
  viability, T/C: 110%
[20]
  viability, T/C: 118%
[21]
  viability, T/C: 97.1%
[22]
  viability, T/C: 102%
[23]
  viability, T/C: 64.7%
[24]
  viability, T/C: 11.7%
[25]
  viability, T/C: 97.7%
[26]
  viability, T/C: 103%
[27]
  viability, T/C: 106%
[28]
  viability, T/C: 91.3%
[29]
  viability, T/C: 57.8%
[30]
  viability, T/C: 5.72%

## CC[C@@]1(O)C(=O)OCc2c1cc1n(c2=O)Cc2cc3c(CN(C)C)c(O)ccc3nc2-1 + NC1CCC(NC2CC2c2ccccc2)CC1
Second compound 0.1 µM
  IC50: > 0.1 µM
Second compound 0.316 µM
  IC50: > 0.1 µM
Second compound 1 µM
  IC50: > 0.1 µM
Second compound 3.16 µM
  IC50: > 0.1 µM
Second compound 10 µM
  IC50: > 0.1 µM
Second compound 0.1 µM, first compound 0.000316 µM
  viability, T/C: 106%
Second compound 0.1 µM, first compound 0.001 µM
  viability, T/C: 99.1%
[31]
  viability, T/C: 137%
[32]
  viability, T/C: 131%
[1]
  viability, T/C: 102%
[2]
  viability, T/C: 51.8%
Second compound 0.316 µM, first compound 0.000316 µM
  viability, T/C: 111%
Second compound 0.316 µM, first compound 0.001 µM
  viability, T/C: 108%
[33]
  viability, T/C: 131%
[34]
  viability, T/C: 132%
[7]
  viability, T/C: 98.6%
[8]
  viability, T/C: 52.8%
Second compound 1 µM, first compound 0.000316 µM
  viability, T/C: 107%
Second compound 1 µM, first compound 0.001 µM
  viability, T/C: 114%
[35]
  viability, T/C: 137%
[36]
  viability, T/C: 131%
[13]
  viability, T/C: 103%
[14]
  viability, T/C: 56.9%
Second compound 3.16 µM, first compound 0.000316 µM
  viability, T/C: 107%
Second compound 3.16 µM, first compound 0.001 µM
  viability, T/C: 124%
[37]
  viability, T/C: 147%
[38]
  viability, T/C: 134%
[19]
  viability, T/C: 104%
[20]
  viability, T/C: 61.6%
Second compound 10 µM, first compound 0.000316 µM
  viability, T/C: 104%
Second compound 10 µM, first compound 0.001 µM
  viability, T/C: 116%
[39]
  viability, T/C: 140%
[40]
  viability, T/C: 131%
[25]
  viability, T/C: 110%
[26]
  viability, T/C: 63.2%

## COc1cc(C2c3cc4c(cc3C(OC3OC5COC(C)OC5C(O)C3O)C3COC(=O)C23)OCO4)cc(OC)c1O (stereo not given) + NC1CCC(NC2CC2c2ccccc2)CC1
Second compound 0.1 µM
  IC50: 2.71 µM
Second compound 0.316 µM
  IC50: 2.75 µM
Second compound 1 µM
  IC50: > 3 µM
Second compound 3.16 µM
  IC50: > 3 µM
Second compound 10 µM
  IC50: > 3 µM
Second compound 0.1 µM, first compound 0.00949 µM
  viability, T/C: 93%
Second compound 0.1 µM, first compound 0.03 µM
  viability, T/C: 125%
Second compound 0.1 µM, first compound 0.0949 µM
  viability, T/C: 144%
Second compound 0.1 µM, first compound 0.3 µM
  viability, T/C: 98.6%
Second compound 0.1 µM, first compound 0.949 µM
  viability, T/C: 74.2%
Second compound 0.1 µM, first compound 3 µM
  viability, T/C: 46.9%
Second compound 0.316 µM, first compound 0.00949 µM
  viability, T/C: 120%
Second compound 0.316 µM, first compound 0.03 µM
  viability, T/C: 121%
Second compound 0.316 µM, first compound 0.0949 µM
  viability, T/C: 150%
Second compound 0.316 µM, first compound 0.3 µM
  viability, T/C: 98.7%
Second compound 0.316 µM, first compound 0.949 µM
  viability, T/C: 72.9%
Second compound 0.316 µM, first compound 3 µM
  viability, T/C: 46.1%
Second compound 1 µM, first compound 0.00949 µM
  viability, T/C: 109%
Second compound 1 µM, first compound 0.03 µM
  viability, T/C: 111%
Second compound 1 µM, first compound 0.0949 µM
  viability, T/C: 150%
Second compound 1 µM, first compound 0.3 µM
  viability, T/C: 99.5%
Second compound 1 µM, first compound 0.949 µM
  viability, T/C: 71.4%
Second compound 1 µM, first compound 3 µM
  viability, T/C: 49.2%
Second compound 3.16 µM, first compound 0.00949 µM
  viability, T/C: 111%
Second compound 3.16 µM, first compound 0.03 µM
  viability, T/C: 111%
Second compound 3.16 µM, first compound 0.0949 µM
  viability, T/C: 155%
Second compound 3.16 µM, first compound 0.3 µM
  viability, T/C: 104%
Second compound 3.16 µM, first compound 0.949 µM
  viability, T/C: 77.6%
Second compound 3.16 µM, first compound 3 µM
  viability, T/C: 52.3%
Second compound 10 µM, first compound 0.00949 µM
  viability, T/C: 113%
Second compound 10 µM, first compound 0.03 µM
  viability, T/C: 111%
Second compound 10 µM, first compound 0.0949 µM
  viability, T/C: 150%
Second compound 10 µM, first compound 0.3 µM
  viability, T/C: 109%
Second compound 10 µM, first compound 0.949 µM
  viability, T/C: 81.5%
Second compound 10 µM, first compound 3 µM
  viability, T/C: 57.4%

## Nc1ncn(C2CC(O)C(CO)O2)c(=O)n1 (stereo not given) + NC1CCC(NC2CC2c2ccccc2)CC1
Second compound 0.1 µM
  IC50: > 1 µM
Second compound 0.316 µM
  IC50: > 1 µM
Second compound 1 µM
  IC50: > 1 µM
Second compound 3.16 µM
  IC50: > 1 µM
Second compound 10 µM
  IC50: > 1 µM
[31]
  viability, T/C: 97.6%
[32]
  viability, T/C: 110%
[1]
  viability, T/C: 98.2%
[2]
  viability, T/C: 129%
[3]
  viability, T/C: 139%
[4]
  viability, T/C: 142%
[33]
  viability, T/C: 95.9%
[34]
  viability, T/C: 111%
[7]
  viability, T/C: 107%
[8]
  viability, T/C: 127%
[9]
  viability, T/C: 141%
[10]
  viability, T/C: 138%
[35]
  viability, T/C: 102%
[36]
  viability, T/C: 119%
[13]
  viability, T/C: 111%
[14]
  viability, T/C: 130%
[15]
  viability, T/C: 127%
[16]
  viability, T/C: 135%
[37]
  viability, T/C: 101%
[38]
  viability, T/C: 108%
[19]
  viability, T/C: 112%
[20]
  viability, T/C: 137%
[21]
  viability, T/C: 151%
[22]
  viability, T/C: 138%
[39]
  viability, T/C: 113%
[40]
  viability, T/C: 105%
[25]
  viability, T/C: 116%
[26]
  viability, T/C: 140%
[27]
  viability, T/C: 140%
[28]
  viability, T/C: 132%
